This passage reports solubility in water results from patent US20250318524A1, “ANTIMICROBIAL COATING COMPOSITION AND METHOD OF USE THEREOF” (priority 2024, published 2025).

This data set in a line: Selection of antimicrobial agents: solubility in aqueous solution, stability, compatibility with the coating composition.

Take `N=C(NCCCCCCNC(=N)NC(=N)Nc1ccc(Cl)cc1)NC(=N)Nc1ccc(Cl)cc1.O=C(O)[C@H](O)[C@@H](O)[C@H](O)[C@H](O)CO.O=C(O)[C@H](O)[C@@H](O)[C@H](O)[C@H](O)CO` [Chlorhexidine gluconate, chlorhexidine gluconate]: the solubility in water entry is “good water solubility”.

As to polyhexamethylene biguanide [PHMB], the solubility in water entry is listed as “good water solubility”.
